The test system of data set [1] is DOI-induced psychotic-like behaviour. It is filed as in vivo, mice.
Data set [2] relates to murine model of schizophrenia. Description: Open-field test (ambulation, rearing, grooming) in the PCP mouse model.
Description: Mice were assessed for hyperactivity behavior on postnatal day 16 (FIG. 2). Mice were placed in the center of a transparent glass cube cage 30×40 X31 cm divided into squares of 7.5×7.5 cm. The number of squares and rearing activity were counted for 8 min.
Mice were assessed for hyperactivity behavior on postnatal day 64-66. Mice were placed in the center of a transparent glass cube cage 30×40 X31 cm divided into squares of 7.5×7.5 cm. The number of squares and rearing activity were counted for 8 min.
The target of another data set is cannabinoid receptor CB2 (Homo sapiens, UniProt P34972). Conditions: cited from earlier work.
The target of another data set is CB2 receptor (Homo sapiens, UniProt P34972). Conditions: Chicca A. et al 2014; cited from earlier work.
Sequence of CB2 receptor (P34972 whole entry): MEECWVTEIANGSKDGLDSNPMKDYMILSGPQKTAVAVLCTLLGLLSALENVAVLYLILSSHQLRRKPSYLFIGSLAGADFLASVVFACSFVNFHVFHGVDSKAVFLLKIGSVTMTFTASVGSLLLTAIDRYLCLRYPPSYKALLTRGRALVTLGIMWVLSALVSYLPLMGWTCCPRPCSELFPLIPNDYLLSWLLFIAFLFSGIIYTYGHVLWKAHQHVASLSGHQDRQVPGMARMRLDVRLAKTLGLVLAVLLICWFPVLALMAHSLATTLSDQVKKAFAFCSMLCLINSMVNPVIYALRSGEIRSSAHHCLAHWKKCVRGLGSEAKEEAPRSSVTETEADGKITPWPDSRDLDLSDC
The conditions of data set [3]: Skold et al. 2006; cited from earlier work.
For data set [4] the following is noted: Hanus et al 1999, cited from earlier work.
For data set [5], the system named is murine model of schizophrenia. Description: Prepulse inhibition (PPI) of the startle reflex in the PCP mouse model. Conditions: age 7-8 weeks. It is filed as in vivo, mice. The procedure:
In this experimental model, a weak stimulus (74-90 dB tone) inhibited the subsequent response to a strong stimulus (120 dB tone). Reduced prepulse inhibition of the startle reflex (PPI) was taken as an index of the positive symptoms of schizophrenia (Josselyn and Vaccarino, 1998).
PPI was assessed similarly to the method described by Varty et al. In the employed model, mice were placed in a startle chamber and allowed to acclimate for 5 min. A loudspeaker produced a 65 dB background white noise or the various acoustic pre-pulse stimuli (dB): 74, 78, 82, 86, and 90 (20 ms). A 120 dB (40 ms) stimulus was given first to induce a response to startle. The response of the mouse was transduced and stored by a computer. Each test session lasted for 11 min and consisted of 5 presentations of each of the trial types presented in random order and separated by 15 second intervals. The amount of prepulse inhibition was calculated as % PPI=[1−(startle response for prepulse+pulse)/(startle response for pulse alone)]×100.
The % PPI indicates of level of disruption of the sensorimotor gating system in schizophrenia but also serves as an indicator of memory function. The % PPI after administration of PCP and treatment of BCP in the PPI test also serve as an index of memory function, further supporting the function of the sensorimotor system.

The nature of data set [6]: Body weight in the neonatal PCP mouse model of schizophrenia. Conditions: PCP 5 mg/kg injected postnatally.
The test system of data set [7] is murine model of schizophrenia. The data set can be described thus: Elevated Plus Maze test in the PCP mouse model. The data set is classed as in vivo, mice. Conditions: age 13 weeks; PCP 5 mg/kg injected postnatally. As for the experimental part: Anxiety as measured by the paucity of time spent on the two, anxiety-provoking, open arms (as opposed to the two enclosed arms) of an “Elevated Plus Maze” was used as a parameter of negative symptoms of schizophrenia (Josselyn and Vaccarino, 1998). The plus maze was elevated 50 cm above the table top. Behavior of each mouse was recorded for 5 min by a video camera and scored using the “EthoVision” software (Noldus Information Technology, Wageningen, The Netherlands), measuring the number of entries as well as the amount of time spent in each arm, open or closed. Increased time spent in the closed arms indicated increased anxiety. Increased time spent in the opened arms indicated anxiolytic behavior (reduced stress).

Data set [8] concerns murine model of schizophrenia. Description: PhenoTyper cage behaviour in the PCP mouse model. The data set is classed as in vivo, mice. The note with it: PCP 5 mg/kg injected postnatally.
The next data set addresses CYP2D6 (Homo sapiens, UniProt P10635). Description: CYP450 enzymatic metabolism in human liver microsomes. The note with it: human liver microsomes 0.1 mg/mL, 20 min, 37 C. The procedure: CYP450 dependent activities were determined using a known substrate. […] A known inhibitor, such as quinidine, tested at a single concentration 3.00 μM was included as positive control. Incubation mixture containing human liver microsomes (0.1 mg/mL), substrate (5 μM) and standard inhibitor or test compound were warmed at 37 C for 10 minutes. Reactions were initiated by addition of the NADPH (1 mM) and the mixture was incubated for 20 minutes at 37° C. water bath. The organic solvent in the reaction mixture was DMSO. After incubation, ice cold acetonitrile was added to terminate the reaction. Generation of metabolite from the substrate reactions was determined by LC-MS/MS and assessed based on peak area ratios of analyte/IS. Mean was used to calculate the extent of inhibition (expressed as % of control activity).

“Also recorded” adds a separate entry of the source.

As a reminder, the Ki is a dissociation constant, usually derived from enzyme kinetics or from competition with a known ligand.

Sequence of CYP2D6 (P10635 whole entry): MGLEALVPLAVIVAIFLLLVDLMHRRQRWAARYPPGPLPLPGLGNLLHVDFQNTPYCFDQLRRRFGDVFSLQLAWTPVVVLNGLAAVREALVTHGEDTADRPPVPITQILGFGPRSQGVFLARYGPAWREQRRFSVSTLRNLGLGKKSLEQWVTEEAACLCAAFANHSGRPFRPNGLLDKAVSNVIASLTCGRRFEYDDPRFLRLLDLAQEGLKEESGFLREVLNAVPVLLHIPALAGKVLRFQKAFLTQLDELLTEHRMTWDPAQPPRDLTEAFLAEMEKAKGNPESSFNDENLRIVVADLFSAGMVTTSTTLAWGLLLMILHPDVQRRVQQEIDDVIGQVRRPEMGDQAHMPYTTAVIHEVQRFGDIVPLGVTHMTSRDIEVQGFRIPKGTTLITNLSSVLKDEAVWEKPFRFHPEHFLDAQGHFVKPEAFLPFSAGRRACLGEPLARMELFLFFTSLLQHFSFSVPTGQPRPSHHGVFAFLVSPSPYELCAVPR
Sequence of cannabinoid receptor CB2 (P34972 whole entry): as the sequence (P34972 whole entry) above

In the case of `COc1cc(CC(C)N)c(OC)cc1I.Cl` (single isomer, unassigned; (-)) [DOI, (−)-1-(2,5-Dimethoxy-4-iodophenyl)-2-aminopropane hydrochloride, reference compound], the “grooming response, DOI vs control” value in data set [1] (DOI injected intraperitoneally to mice, hydrochloride) is on record as “significantly increased the grooming response”.
Consider `COc1ccc(C(=O)c2c(C)n(CCN3CCOCC3)c3cc(I)ccc23)cc1` [AM630, 6-Iodopravadoline, reference compound], for which the “open-field ambulation and rearing, reversal of the BCP effect” value in [2] (PND 17, male mice, AM630 10 mg/kg co-injected with BCP 10 mg/kg 1 h after PCP) was “reversed the effects of BCP on ambulation and rearing behaviors; also recorded: not significantly different from these of PCP-treated mice; also recorded: reversed the effect of BCP on PCP-induced inhibition of ambulation and rearing”. For the same molecule, at cannabinoid receptor CB2, the Ki was 32.1 nM.
In the case of `C=C1CC[C@H]2O[C@]2(C)CC[C@@H]2[C@@H]1CC2(C)C` [BCP oxide, Caryophyllene oxide], on CB2 receptor, the CB2 receptor binding entry was “inactivity”. In addition, the allergenicity entry in data set [3] is listed as “found to be an allergen”.
For the molecule `CCCCCCC(C)(C)c1cc(OC)c([C@@H]2C=C(CO)[C@@H]3C[C@H]2C3(C)C)c(OC)c1` [HU-308, [(1R,2R,5R)-2-[2,6-dimethoxy-4-(2-methyloctan-2-yl)phenyl]-7,7-dimethyl-4-bicyclo[3.1.1]hept-3-enyl]methanol], the “time to inhibition of DOI-induced psychotic-like behaviour” value in data set [1] (HU-308 i.p. before DOI) is “already after about one hour”. Moreover, the DOI-induced grooming response entry in data set [1] (HU-308 injected intraperitoneally one to two hours before DOI) is on record as “reverses the effects of the psychedelic drug DOI on behavioral symptoms in a murine model; also recorded: significantly reversed the effect of DOI on grooming response”. Besides, in data set [4], the “body weight of adult mice” value was “does not modulate body weight of adult mice” and the psychoactivity in vivo entry is on record as “non-psychoactive agent in vivo”. For the same molecule, in [4] (similar age of mice (about PND 63)), the open field assay entry is on record as “no effects of HU-308 in the open field assay”. Moreover, in data set [5] (HU-308 5 mg/kg injected 1 h after PCP postnatally (Cremophor EL:ethanol:saline), 5 mg/kg), the “% PPI” value was “reversed the effect of PCP on the % PPI; also recorded: reversed the effect of PCP in the PPI test”.
Regarding `c1ccc(C2(N3CCCCC3)CCCCC2)cc1` [PCP, Phencyclidine, reference compound], the “open-field ambulation and rearing, PCP vs vehicle” value in [2] (PND 16-17, PCP 5 mg/kg injected postnatally) is “significantly inhibited both ambulation and rearing behaviors”. In addition, the “open-field locomotor activity, males, PCP vs vehicle” value in [2] (PND 35-37, PCP 5 mg/kg injected postnatally) is listed as “significantly increased the locomotor activity compared with vehicle treatment”. The “body weight, PCP vs vehicle” value in [6] (weight PND 3-17) is “significantly reduce the body weight; also recorded: induced a significant reduction in body weight; also recorded: difference between vehicle- and PCP-treated groups in body weight was still significant; also recorded: significantly reduced body weight in male and female mice”. In addition, the “body weight, PCP vs vehicle” value in data set [6] (PND 63) was “no significant difference in the body weight between vehicle-treated mice and PCP-treated mice”. Further, in [7], the “time spent in distal end of the opened arm, females, PCP vs vehicle” value is listed as “reduced the time spent in the distal end of the opened arm” and the “time spent in distal end of the opened arm, males, PCP vs vehicle” value was “increased the time spent in the distal end of the opened arm”. Besides, the “% prepulse inhibition, PCP vs vehicle” value in data set [5] (PCP 5 mg/kg injected postnatally) is recorded as “reduced the percent inhibition; also recorded: significant reduction in their ability to adjust to sound stimulus as compared to vehicle treated mice”. Moreover, in [8] (PND 91), the “frequency of entries to the Hidden Zone, males, PCP vs vehicle” value is listed as “appeared to reduce the frequency of entries to the Hidden Zone in males”; the “frequency of entries to the wheel, PCP vs vehicle” value is “reduced the frequency of entries to the wheel”; the “time spent at the Hidden Zone, PCP vs vehicle” value is “increased the time spend at the Hidden Zone”. The “frequency of entries to the Hidden Zone, PCP vs vehicle” value in data set [8] (PND 105) is reported as “increased the frequency of entries to the Hidden Zone”.
On to `C/C1=C\CC/C(C)=C/CC(C)(C)/C=C/C1` [alpha-humulene], for which the CB2 receptor binding result on CB2 receptor was “inactivity”.
As for `Cc1nc2n(c(=O)c1CCN1CCC(c3noc4cc(F)ccc34)CC1)CCCC2` [risperidone, Risperidone, reference compound], in data set [2] (postnatal day 64, postnatal PCP 5 mg/kg, oral risperidone 0.5 mg/kg twice a week, PND 43-62), the “activity in the open field test, male mice” value is on record as “reversed the effect of 5 mg/kg PCP on activity in the open field test of male mice at postnatal day 64”. Besides, the “inhibition of CYP2D6 enzymatic activity” value at CYP2D6 is on record as “inhibited the activity of CYP2D6 enzyme”; against CYP2D6 (listed as Risperidone) it was “inhibited CYP2D6 enzymatic activity”.

(Values after patent publication US20190070124A1, “COMPOSITIONS OF CB2 RECEPTOR SELECTIVE AGONISTS FOR TREATMENT OF MENTAL DISORDERS” (priority 2016, published 2019).)
